Experimental findings from patent US20150253330A1, “PRE-SELECTION OF SUBJECTS FOR THERAPEUTIC TREATMENT WITH AN HSP90 INHIBITOR BASED ON HYPOXIC STATUS” (Synta Pharmaceuticals Corp., priority 2012, published 2015) are described below.

Data set [1] concerns Mia-PaCa2, HPAC and PANC-1 cells. The data set is described as follows: Proliferation of pancreatic cancer cell lines, 24 hours (confirmed by XTT assay). The format is cell-based. The following applies: p<0.001, one way ANOVA. On the procedure: Mia-PaCa2, PANC-1, HPAC and ASPC-1 cell lines (ATCC, Manassas, Va.) were cultured according to the ATCC manual. Medium was supplemented with 10% fetal bovine serum (Invitrogen Corporation, Carlsbad, Calif.), 50 units/ml penicillin, and 50 μg/ml streptomycin (Life Technologies, Inc., Frederick, Md.). Cells were incubated at 37° C. in a humidified 5% CO2 atmosphere.

In data set [2] the test system is A549 NSCLC cells. Put plainly: Mouse xenograft tumor model, ganetespib and BEZ235 (Example 9). The settings on record: ganetespib 50 mg/kg weekly i.v.; BEZ235 10 mg/kg 5 times a week p.o.; particularly at later time points; FIG. 8. The format is in vivo, mice. The source says:
Female immunodeficient CD-1 (nude) mice (Charles River Laboratories, Wilmington, Mass.) were maintained in a pathogen-free environment, and all in vivo procedures were approved by the Synta Pharmaceuticals Corp. Institutional Animal Care and Use Committee. A549 NSCLC cells (7.5×10^6) were subcutaneously implanted into the animals. Mice bearing established tumors (100-200 mm^3) were randomized into treatment groups of 8 and i.v. dosed via the tail vein with either vehicle, ganetespib formulated in 10/18 DRD (10% DMSO, 18% Cremophor RH 40, 3.6% dextrose, 68.4% water) or p.o. dosed with BEZ235 formulated in PEG300/NMP (90% PEG300, 10% N-Methylpyrrolidone). Animals were treated with ganetespib at 50 mg/kg weekly or BEZ235 at 10 mg/kg 5 times a week, either alone or in combination. Tumor growth inhibition was determined as described previously. See Proia et al, PLoS One. 2011; 6(4):e18552.

The subject of data set [3] is SUM149 inflammatory breast cancer (IBC) cells. The data set is described as follows: 24 hr viability assay, inflammatory breast cancer cells. The format is cell-based. The following applies: 24 hr after exposure, FIG. 2. On the procedure: Ganetespib was assayed in inflammatory breast cancer (IBC), a rare but aggressive form of breast cancer distinct from the subtypes presented above.

The subject of data set [4] is Hsp90 client proteins. Put plainly: Western blot of Hsp90 client proteins in MKN45 cells. The format is cell-based. A general note: In western blotting, separated proteins are transferred to a membrane and probed.
The test system of data set [5] is solid tumors. The data set is described as follows: Phase I dose escalation study, twice-weekly administration in patients with solid tumors. The format is in vivo, human. On the procedure:
An open-label Phase 1 dose-escalation study in subjects with solid tumors was performed. The first cohort consisted of three subjects who received 2 mg/m^2 of ganetespib during a 1-hour infusion 2 times per week (e.g., [Monday, Thursday] or [Tuesday, Friday]) for three consecutive weeks followed by a 1 week dose-free interval. The first infusion for the first three subjects was staggered by a minimum of 5 days between subjects. This staggered enrollment scheme was followed for the first cohort only. Subjects tolerating ganetespib continued treatment past week 8 until disease progression as long as the re-treatment criteria continued to be met.
Subsequent cohorts were originally planned to receive escalating doses of 4, 7, 10, 14, 19, 25, 33, 40, and 48 mg/m^2, provided that the previous dose was well-tolerated during cycle 1 (week 1-4). The dose escalation scheme was updated to 25, 50, 75 and 100 mg/m^2, provided that the previous dose was well-tolerated during cycle 1. Following the completion of enrollment at 50 mg/m^2 twice per week, subsequent cohorts were to be treated at 100 mg/m^2 (100% increase above prior dose) and 120 mg/m^2 (20% increase above prior dose), with further dose increments to be approximately 20% over the previous dose level, until the maximum tolerated dose (MTD) was determined. Enrollment was completed at 100 mg/m^2 and the next doses planned were 120 mg/m^2 and 144 mg/m^2.
There had to be at least three evaluable subjects in a cohort before dose escalation could occur. […] Once a subject experienced a DLT the cohort was expanded to six subjects. If only 1 of 6 subjects experienced a DLT, further dose escalation was allowed. However, if 2 of 3 or 2 of 6 subjects experienced a DLT, dose escalation terminated.
A subject's duration of participation included a 2-week screening period and two 4-week treatment cycles totaling approximately 10 weeks. However, at the investigator's discretion, subjects tolerating ganetespib continued treatment past week 8 until disease progression.
The subjects in this study had histologically- or cytologically-confirmed non-hematological malignancy that was metastatic or unresectable. The subjects were documented to be refractory to, or were not candidates for, current standard therapy.
Ganetespib was formulated using 90% v/v PEG 300 and 10% v/v Polysorbate 80 at a concentration of 8 mg/mL and was packaged in a Type I glass amber vial, stoppered with a Flurotec-coated stopper, and sealed. […] The formulation was further diluted with 5% dextrose for injection in infusion container (DEHP-free 500 mL) to a concentration range of 0.02 to 1.2 mg/mL and administered via infusion tubing (DEHP-free) with a 0.22 micron end filter over an hour to the patient. The dosing solution once prepared was administered within 3 hours. Eligible subjects received the drug during a 1-hour infusion 2 times per week for 3 consecutive weeks followed by a 1-week dose-free interval. The amount of ganetespib administered depended upon the cohort to which the subject was assigned and the subject's body surface area (BSA).
A person with triple negative breast cancer (with Stage III invasive ductal carcinoma) from Example 1 enrolled in a Phase I dose escalation study of ganetespib. The patient's disease had progressed on 7 prior chemotherapeutic regimens. The patient was administered 144 mg/m^2 of ganetespib twice-weekly for 3 weeks, followed by 1 week dose-free. […] After 4 cycles, there was a documented 31% reduction in target lesion size (partial response). The treatment was interrupted due to brain metastases treated with whole brain radiation, but treatment with ganetespib resumed in cycle 5.

For data set [6], the system named is Chk1 and Chk2 phosphorylation. Put plainly: Western blot of Chk1 and Chk2 phosphorylation after bleomycin in Detroit 562 cells. The format is cell-based. The settings on record: Detroit 562, 100 nM ganetespib 24 hours prior to bleomycin (5 μM). On the procedure: Protein expression was measured at the indicated time points after bleomycin treatment.
Cell extracts from Detroit 562 head and neck cancer cells were treated with 100 nM of ganetespib 24 hours prior to receiving the DNA damaging agent bleomycin (5 μM). Protein expression was measured at the indicated time points after bleomycin treatment.

The test system of data set [7] is Hsp90 client proteins. Put plainly: Western blot of Hsp90 client proteins in AGS gastric cancer cells. The format is cell-based. As for the experimental part: Ganetespib was also evaluated for its effects on Hsp90 client proteins in AGS gastric cancer cells by western blot. […] Similar to the observation in melanoma cells, exposure to ganetespib […] BRAF expression.

Data set [8] concerns Detroit 562 H/N cancer cells. The data set is described as follows: Single agent viability assay, 72 hr, head and neck cancer cells. The format is cell-based. The source says: Head and neck (H/N) cancer refers to a group of biologically similar cancers originating from the upper autodigestive tract. First line therapies include EGFR inhibitors and platins. Modulation of EGFR and other client proteins by ganetespib was investigated in Detroit 562 H/N cancer cells.

Where [9] appears, read: 41 of 54 enrolled patients assessable for response.
[10] abbreviates: one TNBC patient, 144 mg/m^2 twice-weekly for 3 weeks, 1 week dose-free.

pIC50: −log10 of the molar value.

For orientation: pIC50 means the IC50 on a negative log10 scale, so that one unit is a factor of ten. Higher therefore signals a low IC50. Consider `CC(C)c1cc(-c2nnc(O)n2-c2ccc3c(ccn3C)c2)c(O)cc1O` [ganetespib], for which the “Proliferation of Mia-PaCa2, HPAC and PANC-1 cells” value in data set [1] is listed as “decreases proliferation”. The “Average tumor volume as compared to vehicle” value in data set [2] is recorded as “significantly reduced”. Besides, the “Anticancer activity against SUM149 cells” value in data set [3] is listed as “considerable anticancer activity”. Besides, in data set [4], the “Effect on Hsp90 client proteins by western blot” value was “complete degradation of MET and IGF-IR”. Moreover, in data set [5] (setting [9]), the “Confirmed partial responses, patient with melanoma” value was 1 patient; the “Confirmed partial responses, patient with triple negative breast cancer” value turned out to be 1 patient; the “Patients who achieved stable disease” value stood at 15 patients. Further, in data set [5] (one TNBC patient, 144 mg/m^2 twice-weekly), the Tolerability result is recorded as “tolerated the treatment well with mild/moderate toxicities”. In data set [5] (setting [10]), the “Reduction in target lesion size after 4 cycles (partial response)” value was 31% and the “Response per RECIST after 2 cycles” value is on record as “stable disease”. The “Bleomycin-induced Chk1 and Chk2 phosphorylation” value in data set [6] was “blocked”. For the same compound, the “Effect on Hsp90 client proteins by western blot” value in data set [7] is given as “abolished the expression of EGFR, IGF-IR, C-RAF”. In data set [8] (Detroit 562), the “Cell viability after a 72 hr exposure” value is given as “A fraction of cells remained viable”. Moreover, in data set [8] (Homo sapiens, Detroit 562, single agent viability, 72 hr), the pIC50 was 7.38.
